{"source": "patent US20260130395A1", "about": "“Water Dispersible Botanical Compositions” (Aquila Black Limited, priority 2021, published 2026)", "assay": "Stability of cannabinoid compounds and Vitamin E components in Beverage 2 (AB Red) by LCMSMS", "format": "physicochemical", "data": [{"smiles": "Cc1c(C)c2c(c(C)c1O)CC[C@@](C)(CCC[C@H](C)CCC[C@H](C)CCCC(C)C)O2", "note": "[α-Tocopherol]", "values": [{"measurement": "Stability of Vitamin Es in AB Red", "setting": "stored at 8° C., 0 days", "value": 25.3, "unit": "µg/mL"}, {"measurement": "Stability of Vitamin Es in AB Red", "setting": "stored at 8° C., 1 days", "value": 25.2, "unit": "µg/mL"}, {"measurement": "Stability of Vitamin Es in AB Red", "setting": "stored at 8° C., 2 days", "value": 24.9, "unit": "µg/mL"}, {"measurement": "Stability of Vitamin Es in AB Red", "setting": "stored at 8° C., 3 days", "value": 25.3, "unit": "µg/mL"}, {"measurement": "Stability of Vitamin Es in AB Red", "setting": "stored at 8° C., 5 days", "value": 24.2, "unit": "µg/mL"}, {"measurement": "Stability of Vitamin Es in AB Red", "setting": "stored at 8° C., 8 days", "value": 23.7, "unit": "µg/mL"}, {"measurement": "Stability of Vitamin Es in AB Red", "setting": "stored at 8° C., 9 days", "value": 24.6, "unit": "µg/mL"}, {"measurement": "Stability of Vitamin Es in AB Red", "setting": "stored at 8° C., 10 days", "value": 24.9, "unit": "µg/mL"}, {"measurement": "Stability of Vitamin Es in AB Red", "setting": "stored at 8° C., 11 days", "value": 23.9, "unit": "µg/mL"}, {"measurement": "Stability of Vitamin Es in AB Red", "setting": "stored at 8° C., 12 days", "value": 24.4, "unit": "µg/mL"}, {"measurement": "Stability of Vitamin Es in AB Red", "setting": "stored at 8° C., 15 days", "value": 25.6, "unit": "µg/mL"}, {"measurement": "Stability of Vitamin Es in AB Red", "setting": "stored at 8° C., 16 days", "value": 24.5, "unit": "µg/mL"}, {"measurement": "Stability of Vitamin Es in AB Red", "setting": "stored at 8° C., 17 days", "value": 23.6, "unit": "µg/mL"}, {"measurement": "Stability of Vitamin Es in AB Red", "setting": "stored at 8° C., 18 days", "value": 24.1, "unit": "µg/mL"}, {"measurement": "Stability of Vitamin Es in AB Red", "setting": "stored at 8° C., 19 days", "value": 24.0, "unit": "µg/mL"}, {"measurement": "Stability of Vitamin Es in AB Red", "setting": "stored at 8° C., 22 days", "value": 25.0, "unit": "µg/mL"}, {"measurement": "Stability of Vitamin Es in AB Red", "setting": "stored at 8° C., 23 days", "value": 23.2, "unit": "µg/mL"}, {"measurement": "Stability of Vitamin Es in AB Red", "setting": "stored at 8° C., 24 days", "value": 24.3, "unit": "µg/mL"}, {"measurement": "Stability of Vitamin Es in AB Red", "setting": "stored at 8° C., 25 days", "value": 23.6, "unit": "µg/mL"}, {"measurement": "Stability of Vitamin Es in AB Red", "setting": "stored at 8° C., 26 days", "value": 25.2, "unit": "µg/mL"}, {"measurement": "Stability of Vitamin Es in AB Red", "setting": "stored at 8° C., 29 days", "value": 23.5, "unit": "µg/mL"}, {"measurement": "Stability of Vitamin Es in AB Red", "setting": "stored at 8° C., 30 days", "value": 24.2, "unit": "µg/mL"}, {"measurement": "Stability of Vitamin Es in AB Red", "setting": "stored at 8° C., 60 days", "value": 24.2, "unit": "µg/mL"}, {"measurement": "Stability of Vitamin Es in AB Red", "setting": "stored at 8° C., 90 days", "value": 23.1, "unit": "µg/mL"}, {"measurement": "Stability of Vitamin Es in AB Red", "setting": "stored at 8° C., 120 days", "value": 25.2, "unit": "µg/mL"}, {"measurement": "Stability of Vitamin Es in AB Red", "setting": "stored at 8° C., 150 days", "value": 25.4, "unit": "µg/mL"}, {"measurement": "Stability of Vitamin Es in AB Red", "setting": "stored at 8° C., 180 days", "value": 23.6, "unit": "µg/mL"}, {"measurement": "Stability of Vitamin Es in AB Red", "setting": "stored at 8° C., 210 days", "value": 23.5, "unit": "µg/mL"}, {"measurement": "Stability of Vitamin Es in AB Red", "setting": "stored at 8° C., 240 days", "value": 23.6, "unit": "µg/mL"}, {"measurement": "Stability of Vitamin Es in AB Red", "setting": "stored at 8° C., 270 days", "value": 23.6, "unit": "µg/mL"}, {"measurement": "Stability of Vitamin Es in AB Red", "setting": "stored at 8° C., 300 days", "value": 23.1, "unit": "µg/mL"}, {"measurement": "Stability of Vitamin Es in AB Red", "setting": "stored at 8° C., 330 days", "value": 22.9, "unit": "µg/mL"}, {"measurement": "Stability of Vitamin Es in AB Red", "setting": "stored at 8° C., 360 days", "value": 22.4, "unit": "µg/mL"}, {"measurement": "Stability of Vitamin Es in AB Red", "setting": "stored at 8° C., 390 days", "value": 23.1, "unit": "µg/mL"}, {"measurement": "Stability of Vitamin Es in AB Red", "setting": "stored at 8° C., 420 days", "value": 22.3, "unit": "µg/mL"}, {"measurement": "Stability of Vitamin Es in AB Red", "setting": "stored at 8° C., 450 days", "value": 22.7, "unit": "µg/mL"}, {"measurement": "Stability of Vitamin Es in AB Red", "setting": "stored at 8° C., 480 days", "value": 21.8, "unit": "µg/mL"}, {"measurement": "Stability of Vitamin Es in AB Red", "setting": "stored at 8° C., 510 days", "value": 22.0, "unit": "µg/mL"}, {"measurement": "Stability of Vitamin Es in AB Red", "setting": "stored at 8° C., 540 days", "value": 21.8, "unit": "µg/mL"}, {"measurement": "Stability of Vitamin Es in AB Red", "setting": "stored at 8° C., 570 days", "value": 21.5, "unit": "µg/mL"}, {"measurement": "Stability of Vitamin Es in AB Red", "setting": "stored at 21-25° C., 0 days", "value": 25.3, "unit": "µg/mL"}, {"measurement": "Stability of Vitamin Es in AB Red", "setting": "stored at 21-25° C., 1 days", "value": 24.4, "unit": "µg/mL"}, {"measurement": "Stability of Vitamin Es in AB Red", "setting": "stored at 21-25° C., 2 days", "value": 24.1, "unit": "µg/mL"}, {"measurement": "Stability of Vitamin Es in AB Red", "setting": "stored at 21-25° C., 3 days", "value": 23.8, "unit": "µg/mL"}, {"measurement": "Stability of Vitamin Es in AB Red", "setting": "stored at 21-25° C., 5 days", "value": 22.9, "unit": "µg/mL"}, {"measurement": "Stability of Vitamin Es in AB Red", "setting": "stored at 21-25° C., 8 days", "value": 24.5, "unit": "µg/mL"}, {"measurement": "Stability of Vitamin Es in AB Red", "setting": "stored at 21-25° C., 9 days", "value": 23.3, "unit": "µg/mL"}, {"measurement": "Stability of Vitamin Es in AB Red", "setting": "stored at 21-25° C., 10 days", "value": 23.0, "unit": "µg/mL"}, {"measurement": "Stability of Vitamin Es in AB Red", "setting": "stored at 21-25° C., 11 days", "value": 24.4, "unit": "µg/mL"}, {"measurement": "Stability of Vitamin Es in AB Red", "setting": "stored at 21-25° C., 12 days", "value": 23.4, "unit": "µg/mL"}, {"measurement": "Stability of Vitamin Es in AB Red", "setting": "stored at 21-25° C., 15 days", "value": 24.8, "unit": "µg/mL"}, {"measurement": "Stability of Vitamin Es in AB Red", "setting": "stored at 21-25° C., 16 days", "value": 25.1, "unit": "µg/mL"}, {"measurement": "Stability of Vitamin Es in AB Red", "setting": "stored at 21-25° C., 17 days", "value": 24.4, "unit": "µg/mL"}, {"measurement": "Stability of Vitamin Es in AB Red", "setting": "stored at 21-25° C., 18 days", "value": 24.9, "unit": "µg/mL"}, {"measurement": "Stability of Vitamin Es in AB Red", "setting": "stored at 21-25° C., 19 days", "value": 25.4, "unit": "µg/mL"}, {"measurement": "Stability of Vitamin Es in AB Red", "setting": "stored at 21-25° C., 22 days", "value": 25.4, "unit": "µg/mL"}, {"measurement": "Stability of Vitamin Es in AB Red", "setting": "stored at 21-25° C., 23 days", "value": 24.6, "unit": "µg/mL"}, {"measurement": "Stability of Vitamin Es in AB Red", "setting": "stored at 21-25° C., 24 days", "value": 23.5, "unit": "µg/mL"}, {"measurement": "Stability of Vitamin Es in AB Red", "setting": "stored at 21-25° C., 25 days", "value": 25.5, "unit": "µg/mL"}, {"measurement": "Stability of Vitamin Es in AB Red", "setting": "stored at 21-25° C., 26 days", "value": 24.3, "unit": "µg/mL"}, {"measurement": "Stability of Vitamin Es in AB Red", "setting": "stored at 21-25° C., 29 days", "value": 24.4, "unit": "µg/mL"}, {"measurement": "Stability of Vitamin Es in AB Red", "setting": "stored at 21-25° C., 30 days", "value": 24.6, "unit": "µg/mL"}, {"measurement": "Stability of Vitamin Es in AB Red", "setting": "stored at 21-25° C., 60 days", "value": 24.4, "unit": "µg/mL"}, {"measurement": "Stability of Vitamin Es in AB Red", "setting": "stored at 21-25° C., 90 days", "value": 24.3, "unit": "µg/mL"}, {"measurement": "Stability of Vitamin Es in AB Red", "setting": "stored at 21-25° C., 120 days", "value": 23.7, "unit": "µg/mL"}, {"measurement": "Stability of Vitamin Es in AB Red", "setting": "stored at 21-25° C., 150 days", "value": 23.4, "unit": "µg/mL"}, {"measurement": "Stability of Vitamin Es in AB Red", "setting": "stored at 21-25° C., 180 days", "value": 23.3, "unit": "µg/mL"}, {"measurement": "Stability of Vitamin Es in AB Red", "setting": "stored at 21-25° C., 210 days", "value": 22.7, "unit": "µg/mL"}, {"measurement": "Stability of Vitamin Es in AB Red", "setting": "stored at 21-25° C., 240 days", "value": 23.1, "unit": "µg/mL"}, {"measurement": "Stability of Vitamin Es in AB Red", "setting": "stored at 21-25° C., 270 days", "value": 23.1, "unit": "µg/mL"}, {"measurement": "Stability of Vitamin Es in AB Red", "setting": "stored at 21-25° C., 300 days", "value": 23.5, "unit": "µg/mL"}, {"measurement": "Stability of Vitamin Es in AB Red", "setting": "stored at 21-25° C., 330 days", "value": 22.6, "unit": "µg/mL"}, {"measurement": "Stability of Vitamin Es in AB Red", "setting": "stored at 21-25° C., 360 days", "value": 21.9, "unit": "µg/mL"}, {"measurement": "Stability of Vitamin Es in AB Red", "setting": "stored at 21-25° C., 390 days", "value": 22.7, "unit": "µg/mL"}, {"measurement": "Stability of Vitamin Es in AB Red", "setting": "stored at 21-25° C., 420 days", "value": 22.5, "unit": "µg/mL"}, {"measurement": "Stability of Vitamin Es in AB Red", "setting": "stored at 21-25° C., 450 days", "value": 22.3, "unit": "µg/mL"}, {"measurement": "Stability of Vitamin Es in AB Red", "setting": "stored at 21-25° C., 480 days", "value": 21.6, "unit": "µg/mL"}, {"measurement": "Stability of Vitamin Es in AB Red", "setting": "stored at 21-25° C., 510 days", "value": 21.4, "unit": "µg/mL"}, {"measurement": "Stability of Vitamin Es in AB Red", "setting": "stored at 21-25° C., 540 days", "value": 21.0, "unit": "µg/mL"}, {"measurement": "Stability of Vitamin Es in AB Red", "setting": "stored at 21-25° C., 570 days", "value": 21.4, "unit": "µg/mL"}]}]}
